Measurements as given in ChEMBL document CHEMBL1151200, “Comparison of fascaplysin and related alkaloids: a study of structures, cytotoxicities, and sources” (J Nat Prod, 2004).

Columns and labels:
L1210 [1] = experiment: Cytotoxicity against mouse L1210 cells at 84 ug/disk by disk diffusion soft agar colony formation assay; type: functional
MC-38 [2] = experiment: Cytotoxicity against mouse C38 cells at 84 ug/disk by disk diffusion soft agar colony formation assay; type: functional
[3] = Cytotoxicity against mouse CFU-GM cells at 84 ug/disk by disk diffusion soft agar colony formation assay; type: cell-based
[4] = Cytotoxicity against human H116 cells at 84 ug/disk by disk diffusion soft agar colony formation assay; type: functional
[5] = Cytotoxicity against human H125 cells at 84 ug/disk by disk diffusion soft agar colony formation assay; type: functional
CCRF-CEM [6] = experiment: Cytotoxicity against human CEM cells at 84 ug/disk by disk diffusion soft agar colony formation assay; type: functional
L1210 [7] = experiment: Cytotoxicity against mouse L1210 cells at 3.4 ug/disk by disk diffusion soft agar colony formation assay; type: functional
MC-38 [8] = experiment: Cytotoxicity against mouse C38 cells at 3.4 ug/disk by disk diffusion soft agar colony formation assay; type: functional
[9] = Cytotoxicity against mouse CFU-GM cells at 3.4 ug/disk by disk diffusion soft agar colony formation assay; type: cell-based
[10] = Cytotoxicity against human H116 cells at 3.4 ug/disk by disk diffusion soft agar colony formation assay; type: functional
[11] = Cytotoxicity against human H125 cells at 3.4 ug/disk by disk diffusion soft agar colony formation assay; type: functional
CCRF-CEM [12] = experiment: Cytotoxicity against human CEM cells at 3.4 ug/disk by disk diffusion soft agar colony formation assay; type: functional
[13] = Cytotoxicity against human H116 cells at 0.8 ug/disk by disk diffusion soft agar colony formation assay; type: functional
[14] = Cytotoxicity against human H125 cells at 0.8 ug/disk by disk diffusion soft agar colony formation assay; type: functional
CCRF-CEM [15] = experiment: Cytotoxicity against human CEM cells at 0.8 ug/disk by disk diffusion soft agar colony formation assay; type: functional
A549 = experiment: Antitumor activity against human A549/ATCC cells; type: functional, cell-based
EKVX = experiment: Antitumor activity against human EKVX cells; type: functional, cell-based
HOP-62 = experiment: Antitumor activity against human HOP62 cells; type: functional, cell-based
HOP-92 = experiment: Antitumor activity against human HOP92 cells; type: functional, cell-based
NCI-H226 = experiment: Antitumor activity against human NCI-H226 cells; type: functional, cell-based
NCI-H23 = experiment: Antitumor activity against human NCI-H23 cells; type: functional, cell-based
NCI-H322M = experiment: Antitumor activity against human NCI-H322M cells; type: functional, cell-based
NCI-H460 = experiment: Antitumor activity against human NCI-H460 cells; type: functional, cell-based
NCI-H522 = experiment: Antitumor activity against human NCI-H522 cells; type: functional, cell-based
COLO 205 = experiment: Antitumor activity against human COLO205 cells; type: functional, cell-based
HCC 2998 = experiment: Antitumor activity against human HCC2998 cells; type: functional, cell-based
HCT-116 = experiment: Antitumor activity against human HCT116 cells; type: functional, cell-based
HCT-15 = experiment: Antitumor activity against human HCT15 cells; type: functional, cell-based
KM12 = experiment: Antitumor activity against human KM12 cells; type: functional, cell-based
SW-620 = experiment: Antitumor activity against human SW620 cells; type: functional, cell-based
SF-268 = experiment: Antitumor activity against human SF268 cells; type: functional, cell-based
SF-295 = experiment: Antitumor activity against human SF295 cells; type: functional, cell-based
SNB-19 = experiment: Antitumor activity against human SNB19 cells; type: functional, cell-based
SNB-75 = experiment: Antitumor activity against human SNB75 cells; type: functional, cell-based
U-251 = experiment: Antitumor activity against human U251 cells; type: functional, cell-based
LOX IMVI = experiment: Antitumor activity against human LOXIMVI cells; type: functional, cell-based
Malme-3M = experiment: Antitumor activity against human MALME-3M cells; type: functional, cell-based
M14 = experiment: Antitumor activity against human M14 cells; type: functional, cell-based
SK-MEL-28 = experiment: Antitumor activity against human SK-MEL-28 cells; type: functional, cell-based
SK-MEL-5 = experiment: Antitumor activity against human SK-MEL-5 cells; type: functional, cell-based
UACC-257 = experiment: Antitumor activity against human UACC257 cells; type: functional, cell-based
UACC-62 = experiment: Antitumor activity against human UACC62 cells; type: functional, cell-based
IGROV-1 = experiment: Antitumor activity against human IGROV1 cells; type: functional, cell-based
OVCAR-3 = experiment: Antitumor activity against human OVCAR-3 cells; type: functional, cell-based
OVCAR-4 = experiment: Antitumor activity against human OVCAR4 cells; type: functional, cell-based
OVCAR-5 = experiment: Antitumor activity against human OVCAR5 cells; type: functional, cell-based
OVCAR-8 = experiment: Antitumor activity against human OVCAR8 cells; type: functional, cell-based
SK-OV-3 = experiment: Antitumor activity against human SKOV3 cells; type: functional, cell-based
[16] = Antitumor activity against human 786-O cells; type: functional, cell-based; conditions: 786-0
A498 = experiment: Antitumor activity against human A498 cells; type: functional, cell-based
ACHN = experiment: Antitumor activity against human ACHN cells; type: functional, cell-based
CAKI-1 = experiment: Antitumor activity against human Caki1 cells; type: functional, cell-based
RXF 393 = experiment: Antitumor activity against human RXF393 cells; type: functional, cell-based
SN12C = experiment: Antitumor activity against human SN12C cells; type: functional, cell-based
TK-10 = experiment: Antitumor activity against human TK10 cells; type: functional, cell-based
UO-31 = experiment: Antitumor activity against human UO31 cells; type: functional, cell-based
PC-3 = experiment: Antitumor activity against human PC3 cells; type: functional, cell-based
MCF7 [17] = experiment: Antitumor activity against human MCF7 cells; type: functional, cell-based
MCF7 [18] = experiment: Antitumor activity against […] human MCF7 cells; type: functional, cell-based
[19] = Antitumor activity against human Hs 578T cells; type: functional, cell-based
MDA-MB-435 = experiment: Antitumor activity against human MDA-MB-435 cells; type: functional, cell-based
BT-549 = experiment: Antitumor activity against human BT549 cells; type: functional, cell-based
T47D = experiment: Antitumor activity against human T47D cells; type: functional, cell-based
L1210 [20] = experiment: Cytotoxicity against mouse L1210 cells 6.4 ug/disk by disk diffusion soft agar colony formation assay; type: functional
MC-38 [21] = experiment: Cytotoxicity against mouse C38 cells at 6.4 ug/disk by disk diffusion soft agar colony formation assay; type: functional
[22] = Cytotoxicity against mouse CFU-GM cells at 6.4 ug/disk by disk diffusion soft agar colony formation assay; type: cell-based
[23] = Cytotoxicity against human H116 cells at 6.4 ug/disk by disk diffusion soft agar colony formation assay; type: functional
[24] = Cytotoxicity against human H125 cells at 6.4 ug/disk by disk diffusion soft agar colony formation assay; type: functional
CCRF-CEM [25] = experiment: Cytotoxicity against human CEM cells at 6.4 ug/disk by disk diffusion soft agar colony formation assay; type: functional
HL-60(TB) = experiment: Antitumor activity against human HL-60(TB) cells; type: functional, cell-based
K562 = experiment: Antitumor activity against human K562 cells; type: functional, cell-based
MOLT-4 = experiment: Antitumor activity against human MOLT4 cells; type: functional, cell-based
RPMI-8226 = experiment: Antitumor activity against human RPMI8226 cells; type: functional, cell-based
SR = experiment: Antitumor activity against human SR cells; type: functional, cell-based
L1210 [26] = experiment: Cytotoxicity against mouse L1210 cells at 18 ug/disk by disk diffusion soft agar colony formation assay; type: functional
MC-38 [27] = experiment: Cytotoxicity against mouse C38 cells at 18 ug/disk by disk diffusion soft agar colony formation assay; type: functional
[28] = Cytotoxicity against mouse CFU-GM cells at 18 ug/disk by disk diffusion soft agar colony formation assay; type: cell-based
[29] = Cytotoxicity against human H116 cells at 18 ug/disk by disk diffusion soft agar colony formation assay; type: functional
[30] = Cytotoxicity against human H125 cells at 18 ug/disk by disk diffusion soft agar colony formation assay; type: functional
CCRF-CEM [31] = experiment: Cytotoxicity against human CEM cells at 18 ug/disk by disk diffusion soft agar colony formation assay; type: functional
L1210 [32] = experiment: Cytotoxicity against mouse L1210 cells at 200 ug/dusk by disk diffusion soft agar colony formation assay; type: functional
MC-38 [33] = experiment: Cytotoxicity against mouse C38 cells at 200 ug/disk by disk diffusion soft agar colony formation assay; type: functional
[34] = Cytotoxicity against mouse CFU-GM cells at 200 ug/disk by disk diffusion soft agar colony formation assay; type: cell-based
[35] = Cytotoxicity against human H116 cells at 200 ug/disk by disk diffusion soft agar colony formation assay; type: functional

SMILES: COC(=O)c1ccc(Br)cc1-[n+]1ccc2c(c1)[nH]c1cc(Br)ccc12.[Cl-]
- Activity (L1210 [1]): 450 Zone units
- Activity (MC-38 [2]): 350 Zone units
- Activity [3]: 400 Zone units
- Activity [4]: 300 Zone units
- Activity [5]: 500 Zone units
- Activity (CCRF-CEM [6]): 300 Zone units

SMILES: O=C1c2ccccc2-[n+]2ccc3c([nH]c4cc(Br)ccc43)c21.[Cl-]
- Activity (L1210 [7]): 550 Zone units
- Activity (MC-38 [8]): 450 Zone units
- Activity [9]: 350 Zone units
- Activity [10]: 600 Zone units
- Activity [11]: 750 Zone units
- Activity (CCRF-CEM [12]): 400 Zone units
- Activity [13]: 400 Zone units
- Activity [14]: 500 Zone units
- Activity (CCRF-CEM [15]): 200 Zone units

SMILES: O=C1c2ccc(Br)cc2-[n+]2ccc3c([nH]c4ccccc43)c21.[Cl-]
- IC50 (A549): > 10 µM
- IC50 (EKVX): 3.6 µM
- IC50 (HOP-62): > 10 µM
- IC50 (HOP-92): > 10 µM
- IC50 (NCI-H226): 5.3 µM
- IC50 (NCI-H23): 0.89 µM
- IC50 (NCI-H322M): 0.65 µM
- IC50 (NCI-H460): > 10 µM
- IC50 (NCI-H522): 0.68 µM
- IC50 (COLO 205): > 10 µM
- IC50 (HCC 2998): 0.91 µM
- IC50 (HCT-116): 0.76 µM
- IC50 (HCT-15): > 10 µM
- IC50 (KM12): 8.5 µM
- IC50 (SW-620): > 10 µM
- IC50 (SF-268): 5.6 µM
- IC50 (SF-295): 0.59 µM
- IC50 (SNB-19): 0.66 µM
- IC50 (SNB-75): 3.8 µM
- IC50 (U-251): > 10 µM
- IC50 (LOX IMVI): > 10 µM
- IC50 (Malme-3M): 0.49 µM
- IC50 (M14): 0.59 µM
- IC50 (SK-MEL-28): 1.3 µM
- IC50 (SK-MEL-5): > 10 µM
- IC50 (UACC-257): 5.3 µM
- IC50 (UACC-62): 0.63 µM
- IC50 (IGROV-1): 0.74 µM
- IC50 (OVCAR-3): 4.4 µM
- IC50 (OVCAR-4): 0.59 µM
- IC50 (OVCAR-5): > 10 µM
- IC50 (OVCAR-8): 0.6 µM
- IC50 (SK-OV-3): > 10 µM
- IC50 [16]: 7.1 µM
- IC50 (A498): > 10 µM
- IC50 (ACHN): > 10 µM
- IC50 (CAKI-1): 1.6 µM
- IC50 (RXF 393): 3.1 µM
- IC50 (SN12C): 2.9 µM
- IC50 (TK-10): > 10 µM
- IC50 (UO-31): 0.53 µM
- IC50 (PC-3): > 10 µM
- IC50 (MCF7 [17]): 0.93 µM
- IC50 (MCF7 [18]): 5.3 µM
- IC50 [19]: 0.59 µM
- IC50 (MDA-MB-435): > 10 µM
- IC50 (BT-549): 0.59 µM
- IC50 (T47D): > 10 µM
- Activity (L1210 [20]): 500 Zone units
- Activity (MC-38 [21]): 400 Zone units
- Activity [22]: 400 Zone units
- Activity [23]: 600 Zone units
- Activity [24]: 550 Zone units
- Activity (CCRF-CEM [25]): 400 Zone units
- IC50 (HL-60(TB)): > 10 µM
- IC50 (K562): > 10 µM
- IC50 (MOLT-4): > 10 µM
- IC50 (RPMI-8226): > 10 µM
- IC50 (SR): > 10 µM

SMILES: COC(=O)c1ccccc1-[n+]1ccc2c(c1)[nH]c1ccccc12.[Cl-] [RETICULATINE]
- Activity (L1210 [26]): 450 Zone units
- Activity (MC-38 [27]): 600 Zone units
- Activity [28]: 350 Zone units
- Activity [29]: 500 Zone units
- Activity [30]: 600 Zone units
- Activity (CCRF-CEM [31]): 500 Zone units

SMILES: COC(=O)c1ccc(Br)cc1-[n+]1ccc2c(c1)[nH]c1ccccc12.[Cl-]
- Activity (L1210 [32]): 350 Zone units
- Activity (MC-38 [33]): 400 Zone units
- Activity [34]: 250 Zone units
- Activity [35]: 200 Zone units
